Legend:
Format in all cases: functional
[1] = system: SK-OV-3; assay: Cytotoxicity against human SKOV3 cells assessed as cellular growth at 0.01 uM after 48 hrs by SRB assay relative to control
[2] = system: SK-MEL-5; assay: Cytotoxicity against human SK-MEL-5 cells assessed as cellular growth at 0.01 uM after 48 hrs by SRB assay relative to control
[3] = system: MDA-MB-435; assay: Cytotoxicity against human MDA-MB-435 cells assessed as cellular growth at 0.01 uM after 48 hrs by SRB assay relative to control
[4] = system: KM12; assay: Cytotoxicity against human KM12 cells assessed as cellular growth at 0.01 uM after 48 hrs by SRB assay relative to control
[5] = system: NCI-H460; assay: Cytotoxicity against human NCI-H460 cells assessed as cellular growth at 0.01 uM after 48 hrs by SRB assay relative to control
[6] = system: A549; assay: Cytotoxicity against human A549 cells assessed as cellular growth at 0.01 uM after 48 hrs by SRB assay relative to control
[7] = system: OVCAR-4; assay: Cytotoxicity against human OVCAR4 cells assessed as cellular growth at 100 uM after 48 hrs by SRB assay relative to control
[8] = system: SF-539; assay: Cytotoxicity against human SF539 cells assessed as cellular growth at 100 uM after 48 hrs by SRB assay relative to control
[9] = system: SF-268; assay: Cytotoxicity against human SF268 cells assessed as cellular growth at 100 uM after 48 hrs by SRB assay relative to control
[10] = system: NCI-H322M; assay: Cytotoxicity against human NCI-H322M cells assessed as cellular growth at 100 uM after 48 hrs by SRB assay relative to control
[11] = system: T47D; assay: Cytotoxicity against human T47D cells assessed as cellular growth at 1 uM after 48 hrs by SRB assay relative to control
[12] = system: 786-0; assay: Cytotoxicity against human 786-0 cells assessed as cellular growth at 10 uM after 48 hrs by SRB assay relative to control
[13] = system: IGROV-1; assay: Cytotoxicity against human IGROV1 cells at 10 uM after 48 hrs by SRB assay
[14] = system: T47D; assay: Cytotoxicity against human T47D cells assessed as cellular growth at 100 uM after 48 hrs by SRB assay relative to control
[15] = system: BT-549; assay: Cytotoxicity against human BT549 cells assessed as cellular growth at 1 uM after 48 hrs by SRB assay relative to control
[16] = system: SN12C; assay: Cytotoxicity against human SN12C cells assessed as cellular growth at 1 uM after 48 hrs by SRB assay relative to control
[17] = system: OVCAR-3; assay: Cytotoxicity against human OVCAR3 cells assessed as cellular growth at 1 uM after 48 hrs by SRB assay relative to control
[18] = system: UACC-62; assay: Cytotoxicity against human UACC62 cells assessed as cellular growth at 1 uM after 48 hrs by SRB assay relative to control
[19] = Cytotoxicity against human EKVX cells assessed as cellular growth at 1 uM after 48 hrs by SRB assay relative to control
[20] = system: BT-549; assay: Cytotoxicity against human BT549 cells assessed as cellular growth at 0.1 uM after 48 hrs by SRB assay relative to control
[21] = system: SNB-75; assay: Cytotoxicity against human SNB75 cells after 48 hrs by SRB assay; conditions: SNB-75, 48 h
[22] = system: SW-620; assay: Cytotoxicity against human SW620 cells after 48 hrs by SRB assay; conditions: SW-620, 48 h
[23] = system: HOP-92; assay: Cytotoxicity against human HOP92 cells after 48 hrs by SRB assay; conditions: HOP-92, 48 h
[24] = system: NCI-H226; assay: Cytotoxicity against human NCI-H226 cells after 48 hrs by SRB assay; conditions: NCI-H226, 48 h
[25] = system: SR; assay: Cytotoxicity against human SR cells after 48 hrs by SRB assay
[26] = system: CCRF-CEM; assay: Cytotoxicity against human CCRF-CEM cells after 48 hrs by SRB assay
[27] = system: UO-31; assay: Cytotoxicity against human UO31 cells assessed as cellular growth at 0.1 uM after 48 hrs by SRB assay relative to control
[28] = system: SK-OV-3; assay: Cytotoxicity against human SKOV3 cells assessed as cellular growth at 0.1 uM after 48 hrs by SRB assay relative to control
[29] = system: OVCAR-8; assay: Cytotoxicity against human OVCAR8 cells assessed as cellular growth at 0.1 uM after 48 hrs by SRB assay relative to control
[30] = Cytotoxicity against human NCI-ADR-RES cells assessed as cellular growth at 0.1 uM after 48 hrs by SRB assay relative to control
[31] = system: SF-539; assay: Cytotoxicity against human SF539 cells assessed as cellular growth at 0.1 uM after 48 hrs by SRB assay relative to control
[32] = system: HCT-15; assay: Cytotoxicity against human HCT15 cells assessed as cellular growth at 0.1 uM after 48 hrs by SRB assay relative to control
[33] = system: NCI-H460; assay: Cytotoxicity against human NCI-H460 cells assessed as cellular growth at 0.1 uM after 48 hrs by SRB assay relative to control
[34] = system: NCI-H23; assay: Cytotoxicity against human NCI-H23 cells assessed as cellular growth at 0.1 uM after 48 hrs by SRB assay relative to control
[35] = system: HOP-92; assay: Cytotoxicity against human HOP92 cells assessed as cellular growth at 0.1 uM after 48 hrs by SRB assay relative to control
[36] = system: A549; assay: Cytotoxicity against human A549 cells assessed as cellular growth at 0.1 uM after 48 hrs by SRB assay relative to control
[37] = system: CCRF-CEM; assay: Cytotoxicity against human CCRF-CEM cells assessed as cellular growth at 0.1 uM after 48 hrs by SRB assay relative to control
[38] = system: UO-31; assay: Cytotoxicity against human UO31 cells assessed as cellular growth at 0.01 uM after 48 hrs by SRB assay relative to control
[39] = read-out: LC50 (the source's name)
[40] = read-out: pLC50 (the source's name) (converted)

In the case of `O=C(CCCn1c2c(sc3ccccc32)c(=O)n2nnc(-c3ccccc3)c12)NCCc1c[nH]cn1`, the Activity [1] is reported as 108%, the Activity [2] is reported as 101% and the Activity [3] is reported as 117%. For the same compound, the Activity [4] was 106%, the Activity [5] was 111% and the Activity [6] was 103%. The Activity [7] was -87%, the Activity [8] was -99% and the Activity [9] was -69%. It also gave an Activity [10] of -84%, an Activity [11] of 57% and an Activity [12] of -89%. It also gave an Activity [13] of -89%, an Activity [14] of -88% and an Activity [15] of 100%. For the same compound, the Activity [16] was 36%, the Activity [17] was 92% and the Activity [18] was 94%. It also gave an Activity [19] of 79%, an Activity [20] of 90% and a GI50 ([21]; read-out: GI50) of 1.95 µM. For the same compound, the CC50 [21, 39] was 6.32 µM, the TGI ([21]; read-out: TGI) was 3.51 µM and the GI50 ([21]; read-out: pGI50 (converted)) was 1.95 µM. It also gave a CC50 [21, 40] of 6.31 µM, a TGI ([21]; read-out: pTGI (converted)) of 3.55 µM and a GI50 ([22]; read-out: GI50) of 0.024 µM. It also gave a CC50 [22, 39] of 4.16 µM, a TGI ([22]; read-out: TGI) of 1.01 µM and a GI50 ([22]; read-out: pGI50 (converted)) of 0.024 µM. It also gave a CC50 [22, 40] of 4.17 µM, a TGI ([22]; read-out: pTGI (converted)) of 1 µM and a GI50 ([23]; read-out: GI50) of 4.06 µM. The CC50 [23, 39] was greater than 100 µM, the TGI ([23]; read-out: TGI) was 20.5 µM and the GI50 ([23]; read-out: pGI50 (converted)) was 4.07 µM. For the same compound, the CC50 [23, 40] was greater than 100 µM, the TGI ([23]; read-out: pTGI (converted)) was 20.4 µM and the GI50 ([24]; read-out: GI50) was 2.75 µM. The CC50 [24, 39] was 41.2 µM, the TGI ([24]; read-out: TGI) was 7.49 µM and the GI50 ([24]; read-out: pGI50 (converted)) was 2.75 µM. The CC50 [24, 40] was 40.7 µM, the TGI ([24]; read-out: pTGI (converted)) was 7.41 µM and the GI50 ([25]; read-out: GI50) was 0.218 µM. It also gave a CC50 [25, 39] of 4.99 µM, a TGI ([25]; read-out: TGI) of 0.664 µM and a GI50 ([25]; read-out: pGI50 (converted)) of 0.219 µM. It also gave a CC50 [25, 40] of 5.01 µM, a TGI ([25]; read-out: pTGI (converted)) of 0.661 µM and a GI50 ([26]; read-out: GI50) of 0.0156 µM. It also gave a CC50 [26, 39] of 5.29 µM, a TGI ([26]; read-out: TGI) of 0.29 µM and a GI50 ([26]; read-out: pGI50 (converted)) of 0.0155 µM. The CC50 [26, 40] was 5.25 µM, the TGI ([26]; read-out: pTGI (converted)) was 0.288 µM and the Activity [27] was 106%. For the same compound, the Activity [28] was 99%, the Activity [29] was 33% and the Activity [30] was 97%. The Activity [31] was 1%, the Activity [32] was 78% and the Activity [33] was 114%. For the same compound, the Activity [34] was 75%, the Activity [35] was 95% and the Activity [36] was 99%. The Activity [37] was 24% and the Activity [38] was 104%.
Compound `CN1CCN(CCCn2c3c(sc4ncccc43)c(=O)n3nnc(-c4ccccc4)c23)CC1` has an Activity [1] of 101%, an Activity [2] of 96% and an Activity [3] of 101%. The Activity [4] was 101%, the Activity [5] was 102% and the Activity [6] was 97%. For the same compound, the Activity [7] was -70%, the Activity [8] was -69% and the Activity [9] was -86%. For the same compound, the Activity [10] was -92%, the Activity [11] was 103% and the Activity [12] was -84%. It also gave an Activity [13] of -51%, an Activity [14] of -76% and an Activity [15] of 97%. For the same compound, the Activity [16] was 87%, the Activity [17] was 96% and the Activity [18] was 84%. It also gave an Activity [19] of 95%, an Activity [20] of 98% and a GI50 ([21]; read-out: GI50) of 7.71 µM. The CC50 [21, 39] was 48.8 µM, the TGI ([21]; read-out: TGI) was 21.7 µM and the GI50 ([21]; read-out: pGI50 (converted)) was 7.76 µM. The CC50 [21, 40] was 49 µM, the TGI ([21]; read-out: pTGI (converted)) was 21.9 µM and the GI50 ([22]; read-out: GI50) was 1.68 µM. It also gave a CC50 [22, 39] of 8.1 µM, a TGI ([22]; read-out: TGI) of 3.69 µM and a GI50 ([22]; read-out: pGI50 (converted)) of 1.7 µM. It also gave a CC50 [22, 40] of 8.13 µM, a TGI ([22]; read-out: pTGI (converted)) of 3.72 µM and a GI50 ([23]; read-out: GI50) of 6.31 µM. The CC50 [23, 39] was 70.1 µM, the TGI ([23]; read-out: TGI) was 24.3 µM and the GI50 ([23]; read-out: pGI50 (converted)) was 6.31 µM. The CC50 [23, 40] was 70.8 µM, the TGI ([23]; read-out: pTGI (converted)) was 24.5 µM and the GI50 ([24]; read-out: GI50) was 13.9 µM. It also gave a CC50 [24, 39] of 64.2 µM, a TGI ([24]; read-out: TGI) of 29.8 µM and a GI50 ([24]; read-out: pGI50 (converted)) of 13.8 µM. For the same compound, the CC50 [24, 40] was 64.6 µM, the TGI ([24]; read-out: pTGI (converted)) was 29.5 µM and the GI50 ([25]; read-out: GI50) was 2.25 µM. The TGI ([25]; read-out: TGI) was 4.74 µM, the GI50 ([25]; read-out: pGI50 (converted)) was 2.24 µM and the TGI ([25]; read-out: pTGI (converted)) was 4.79 µM. The GI50 ([26]; read-out: GI50) was 1.67 µM, the CC50 [26, 39] was greater than 100 µM and the TGI ([26]; read-out: TGI) was 4.29 µM. The GI50 ([26]; read-out: pGI50 (converted)) was 1.66 µM, the CC50 [26, 40] was greater than 100 µM and the TGI ([26]; read-out: pTGI (converted)) was 4.27 µM. It also gave an Activity [27] of 53%, an Activity [28] of 94% and an Activity [29] of 94%. It also gave an Activity [30] of 91%, an Activity [31] of 89% and an Activity [32] of 91%. It also gave an Activity [33] of 100%, an Activity [34] of 93% and an Activity [35] of 92%. The Activity [36] was 95%, the Activity [37] was 99% and the Activity [38] was 66%.
